Laboratory results as given in article PMC8136874, “The entry reaction of the plant shikimate pathway is subjected to highly complex metabolite-mediated regulation” (The Plant Cell, 2021).

Experiments:
AthDHS2 = target: T1, AthDHS2 (Arabidopsis thaliana, UniProt Q00218); experiment: DHS enzymatic activity assay with recombinant AthDHS2; assay type: biochemical; details: for effect on AthDHS2 activity (in words) / inhibition of AthDHS2 activity: 1 mM effector; for k cat / K m / V max: various concentrations of the substrate; for k cat: E4P values assume no substrate inhibition; for K m / V max: E4P values estimated from Lineweaver–Burk plots because of substrate inhibition
T1 construct: AthDHS2; residues 34–507; hexa-histidine; made in house; host or cells: E. coli Rosetta2 (DE3), pET28a
T1 sequence (Q00218 34-507): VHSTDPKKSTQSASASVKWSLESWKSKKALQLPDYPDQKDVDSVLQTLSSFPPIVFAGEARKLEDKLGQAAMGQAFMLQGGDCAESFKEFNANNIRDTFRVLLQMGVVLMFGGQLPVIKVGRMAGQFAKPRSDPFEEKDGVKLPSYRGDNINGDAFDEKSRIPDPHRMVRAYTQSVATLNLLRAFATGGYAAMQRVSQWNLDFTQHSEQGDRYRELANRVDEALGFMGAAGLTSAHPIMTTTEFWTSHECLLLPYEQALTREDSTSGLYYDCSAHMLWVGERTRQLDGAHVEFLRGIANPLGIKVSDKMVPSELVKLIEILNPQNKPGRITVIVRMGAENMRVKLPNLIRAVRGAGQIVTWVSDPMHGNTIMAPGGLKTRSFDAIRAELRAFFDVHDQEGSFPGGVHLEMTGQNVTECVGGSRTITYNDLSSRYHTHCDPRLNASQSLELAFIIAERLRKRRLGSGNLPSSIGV

AthDHS3 = AthDHS3 (Arabidopsis thaliana, UniProt Q9SK84); experiment: DHS enzymatic activity assay with recombinant AthDHS3; assay type: biochemical; details: for V max: various concentrations of the substrate, means ± SEM, n = 3
Chain of AthDHS3 (Q9SK84 entry or part of it): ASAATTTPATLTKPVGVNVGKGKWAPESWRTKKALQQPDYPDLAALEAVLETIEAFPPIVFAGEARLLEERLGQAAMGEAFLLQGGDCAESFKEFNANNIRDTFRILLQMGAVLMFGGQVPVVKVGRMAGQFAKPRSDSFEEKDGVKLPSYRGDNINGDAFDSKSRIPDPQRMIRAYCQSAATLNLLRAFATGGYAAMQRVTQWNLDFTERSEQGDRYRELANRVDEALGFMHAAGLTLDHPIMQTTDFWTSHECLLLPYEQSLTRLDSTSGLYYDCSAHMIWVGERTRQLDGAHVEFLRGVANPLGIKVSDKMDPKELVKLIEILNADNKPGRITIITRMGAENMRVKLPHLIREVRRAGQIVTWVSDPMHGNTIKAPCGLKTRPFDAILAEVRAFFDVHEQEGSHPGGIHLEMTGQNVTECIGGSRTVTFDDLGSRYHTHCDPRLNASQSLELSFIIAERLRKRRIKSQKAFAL
Description: (§1) Unless otherwise noted, DHS enzymatic activity was monitored as previously described ([Liu et al., 2008]), with several optimizations for high-throughput assays with eight-strip PCR tubes and a thermal cycler. The enzyme solution (7.7 µL) containing 50 mM HEPES (pH 7.4) was preincubated with an effector molecule(s) at room temperature for 10 min. For assays using recombinant protein and enzyme fraction isolated from plant leaves, 0.01–0.05 µg and approximately 50 µg of proteins were used, respectively. After adding 0.5 µL of 0.1 M DTT, the samples were further incubated at room temperature for 15 min. […] The enzyme reaction was started by adding 6.8 µL of the substrate solution, then incubated at 37°C for 20 min, and terminated by adding 30 µL of 0.6 M trichloroacetic acid. After brief centrifugation, 5 µL of 200 mM NaIO4 (sodium meta-periodate) in 9 N H3PO4 was added to oxidize the enzymatic product and incubate at 25°C for 20 min. To stop the oxidation reaction, 20 µL of 0.75 M NaAsO2 (sodium arsenite), which was dissolved in 0.5 M Na2SO4 and 0.05 M H2SO4, was immediately mixed. After 5 min of incubation at room temperature, one-third of the sample solution was transferred to a new tube to be mixed with 50 µL of 40 mM thiobarbituric acid and incubated at 99°C for 15 min in a thermal cycler. Developed pink chromophore was extracted by putting the final solutions with 600 µL of cyclohexanone in eight-strip solvent-resistant plastic tubes, mixing vigorously and centrifuging them at 4,500 × g for 3 min to separate water- and cyclohexanone-based layers. The absorbance of the pink supernatant was read at 549 nm with the microplate reader (Infinite 200 PRO, TECAN, Männedorf, Switzerland) to calculate DAHP production with the molar extinction coefficient at 549 nm (ε = 549 nm) of 4.5 × 10^4/M/cm. Reaction mixtures with boiled enzyme or without any substrates were run in parallel and used as negative controls to estimate the background signal for recombinant enzymes or enzymatic fraction from plant tissues, respectively.
(§2) For determination of kinetic parameters, the data of enzymatic activities measured in the presence of various concentration of substrates were calculated with the Michaelis–Menten equation in Graphpad Prism 6 (GraphPad Software, San Diego, CA, USA).

AthDHS1 = target: T2, AthDHS1 (Arabidopsis thaliana, UniProt P29976); experiment: DHS enzymatic activity assay with recombinant AthDHS1; assay type: biochemical; details: for effect on AthDHS1 activity (in words): 1 mM effector; for K m / V max / k cat: various concentrations of the substrate, means ± SEM, n = 3
T2 construct: AthDHS1; residues 49–525; hexa-histidine; made in house; host or cells: E. coli Rosetta2 (DE3), pET28a
T2 sequence (P29976 49-525): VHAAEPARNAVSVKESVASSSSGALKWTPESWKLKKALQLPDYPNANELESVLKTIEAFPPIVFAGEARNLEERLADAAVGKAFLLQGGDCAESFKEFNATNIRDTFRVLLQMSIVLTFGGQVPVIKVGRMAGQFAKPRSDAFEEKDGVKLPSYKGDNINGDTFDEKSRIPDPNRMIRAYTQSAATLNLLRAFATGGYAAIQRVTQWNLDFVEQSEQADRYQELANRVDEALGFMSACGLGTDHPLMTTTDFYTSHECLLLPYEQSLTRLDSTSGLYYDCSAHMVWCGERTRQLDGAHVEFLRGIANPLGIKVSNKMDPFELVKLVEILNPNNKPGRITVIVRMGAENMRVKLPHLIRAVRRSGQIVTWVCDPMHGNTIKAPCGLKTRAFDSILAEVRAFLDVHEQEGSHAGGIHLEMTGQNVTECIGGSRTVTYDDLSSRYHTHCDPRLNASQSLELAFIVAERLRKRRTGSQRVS
Description: as §1, §2

[1] = test system: AthDHS1 and AthDHS2 mixtures; experiment: DHS assay using mixtures of AthDHS1 and AthDHS2 recombinant enzymes; assay type: biochemical, Arabidopsis thaliana; details: 1 mM effector; molar ratios 0, 0.25, 0.5, 0.75, 1
Description: Next, we thought that the presence of non-inhibited DHS isoforms (e.g. AthDHS1) may affect the AAA sensitivity of AthDHS2, given that AthDHSs are known to function as tetrameric or dimeric forms ([Suzich et al., 1985]; [Pinto et al., 1986]; [Webby et al., 2005]). To test this, the recombinant enzymes of AAA non-inhibited AthDHS1 and AAA-inhibited AthDHS2 were mixed with different ratios (0, 0.25, 0.5, 0.75, and 1) and DHS activity assays were conducted with different inhibitors. Based on the kinetic parameters and the regulatory behaviors of individual AthDHSs, the expected level of DHS activity was first calculated and plotted (dotted lines in Figure 5, D, see the “Materials and methods” section). […] Similar results were obtained for the AthDHS2 and AthDHS3 mixture (Figure 5, E).
Unless otherwise noted, DHS enzymatic activity was monitored as previously described ([Liu et al., 2008]), with several optimizations for high-throughput assays with eight-strip PCR tubes and a thermal cycler. The enzyme solution (7.7 µL) containing 50 mM HEPES (pH 7.4) was preincubated with an effector molecule(s) at room temperature for 10 min. For assays using recombinant protein and enzyme fraction isolated from plant leaves, 0.01–0.05 µg and approximately 50 µg of proteins were used, respectively. After adding 0.5 µL of 0.1 M DTT, the samples were further incubated at room temperature for 15 min. […] The enzyme reaction was started by adding 6.8 µL of the substrate solution, then incubated at 37°C for 20 min, and terminated by adding 30 µL of 0.6 M trichloroacetic acid. After brief centrifugation, 5 µL of 200 mM NaIO4 (sodium meta-periodate) in 9 N H3PO4 was added to oxidize the enzymatic product and incubate at 25°C for 20 min. […] The absorbance of the pink supernatant was read at 549 nm with the microplate reader (Infinite 200 PRO, TECAN, Männedorf, Switzerland) to calculate DAHP production with the molar extinction coefficient at 549 nm (ε = 549 nm) of 4.5 × 10^4/M/cm. […]

[2] = test system: root growth of Arabidopsis Col-0 and dhs mutants; experiment: Chemical feeding experiment, root length of 10-day-old seedlings; assay type: in vivo, Arabidopsis thaliana; details: for effect of the added compound on Trp-mediated root growth inhibition of dhs3: media with 300 µM Trp; for effect of the added compound on Trp-mediated root growth inhibition of dhs3 / effect of the added compound on Tyr-mediated root growth inhibition of dhs1: AAAs added at 300 µM, shikimate at 500 µM; for effect of the added compound on Tyr-mediated root growth inhibition of dhs1: media with 300 µM Tyr
Description: Chemical feeding experiments were carried out as described previously ([de Oliveira et al., 2019]) with some modifications. Seedlings were grown on agar plates containing 0.5 MS with 1% sucrose, 0.8% agar, and 2.5 mM MES at pH 5.7 in the growth chamber where we grew other plants in soil. AAAs and/or shikimate were added to autoclaved media after cooling down to temperatures below 55°C. Plants were grown on the same plate side by side to minimize environmental effects, and multiple plates were prepared to obtain replications. Root lengths of 10-day-old seedlings were quantified by ImageJ.

[3] = test system: shikimate accumulation in Col-0 and dhs mutants; experiment: Shikimate content with and without Tyr and/or glyphosate treatment; assay type: in vivo, Arabidopsis thaliana; details: 250 µM glyphosate, 2 days; for increase of shikimate accumulation after treatment: plants grown with 300 µM Tyr
Description: Approximately 50–80 mg of fully expanded mature leaves were pooled from multiple plants at the same developmental stages and ground in 800 µL of extraction buffer (v/v 2:1 of methanol and chloroform with 2 µg/mL isovitexin [Millipore-Sigma], 100 µM norvaline [Thermo Fisher Scientific], and 1.25 µg/mL Tocol [Matreya LLC, State College, PA, USA] for internal standards for soluble metabolite analysis by LC–MS and GC–MS and tocopherol analysis by GC–MS, respectively), using 1600 MiniG Tissue Homogenizer (SPEX SamplePrep, Metuchen, USA) and 3-mm glass beads. After adding 600 µL of H2O and then 250 µL of chloroform, polar phase containing amino acids, and non‐polar phase containing tocopherols were separated by centrifugation, dried in new tubes. To detect Trp and AAA-derived metabolites, LC–MS analysis was carried out as previous described with some modification ([Alseekh et al., 2015]). The dried metabolites were resuspended in 70 µL of 80% LC–MS-grade methanol. Two microliters of the sample was injected onto a HSS T3 C18 reversed phase column (100 × 2.1 mm i.d., 1.8-μm particle size; Waters, Milford, CT, USA) and eluted using a 20-min gradient comprising 0.1% formic acid in LC–MS-grade water (solvent A) and 0.1% formic acid in LC–MS-grade acetonitrile (solvent B) at a flow rate of 0.4 mL/min and column temperature of 40°C. The binary linear gradient with following ratios of solvent B was used: 0–1 min, 1%; 1–13 min, 1%–35%; 13–14.5 min, 35%–70%; 14.5–15.5 min, 70%–99%, 15.5–17 min, 99%; 17–17.5 min, 99%–[…]; 17.5–20 min, 1%. The spectra were recorded using full scan mode of negative ion detection, covering a mass range from m/z 100 to 1,500. The resolution was set to 25,000 and the maximum scan time was set to 250 ms. The sheath gas was set to a value of 60, while the auxiliary gas was set to 35. The transfer capillary temperature was set to 150°C, while the heater temperature was adjusted to 300°C. The spray voltage was fixed at 3 kV, with a capillary voltage and a skimmer voltage of 25 and 15 V, respectively. Retention times, MS spectra, and associated peak intensities were extracted from the raw files using the Xcalibur software (Thermo Fisher Scientific). […] For anthocyanin quantification, the polar phase isolated for amino acid analysis was diluted 10 times with water in a new tube. […] Shikimate level was spectrometrically determined based on previous literatures ([Shaner et al., 2005]; [Sharkhuu et al., 2014]). […] After stopping the reaction by adding 100 µL of a termination solution containing 0.6 N sodium hydroxide and 0.22 M sodium sulfite, the absorption at 380 nm was immediately measured with the microplate reader. Shikimate concentration was determined by comparing with a dilution series of the shikimate standards.

## O=C(/C=C/c1ccc(O)c(O)c1)OC1CC(C(=O)O)=CC(O)C1O (stereo not shown) [Caffeoyl shikimate]
AthDHS2
  effect on AthDHS2 activity (in words): fully inhibited
AthDHS3; 1 mM effector
  reduction of AthDHS3 activity: 70%
AthDHS1
  effect on AthDHS1 activity (in words): fully inhibited

## O=C[C@H](O)[C@H](O)COP(=O)(O)O [E4P, D-erythrose 4-phosphate]
AthDHS2; substrate inhibition
  substrate concentration beyond which AthDHS2 was inhibited: > 4 mM
AthDHS2
  k cat: 11.8 ± 1.6 s⁻¹
  K m: 1755 ± 400 µM
  V max: 12.9 ± 1.8 nmol/µM/min
AthDHS3
  V max: 9.92 ± 0.31 nmol/µM/min
AthDHS1
  K m: 2842 ± 910 µM
  V max: 17.8 ± 0.59 nmol/µM/min
  k cat: 16.4 ± 0.54 s⁻¹

## C=C(OP(=O)(O)O)C(=O)O [PEP, phosphoenolpyruvate]
AthDHS2
  k cat: 8.95 ± 0.44 s⁻¹
  K m: 360 ± 34 µM
  V max: 9.81 ± 0.48 nmol/µM/min
AthDHS3
  V max: 9.15 ± 0.27 nmol/µM/min
AthDHS1
  K m: 250 ± 53 µM
  V max: 15.3 ± 0.62 nmol/µM/min
  k cat: 14 ± 0.57 s⁻¹

## N[C@@H](Cc1ccccc1)C(=O)O [Phe, L-phenylalanine]
AthDHS2; 1 µM to at least 5 mM tested
  concentration beyond which AthDHS2 activity is slightly activated: > 5 mM
AthDHS2
  effect on AthDHS2 activity (in words): did not significantly affect
AthDHS3; 1 mM effector
  effect on AthDHS3 activity (in words): did not significantly affect
[1]
  observed DHS activity of the enzyme mixtures versus theoretically calculated activity: matched with the theoretical plot
[2]; Arabidopsis thaliana, read-out: IC50 of root growth suppression
  IC50: ~550 µM
[2]; all dhs mutants, similarly to Col-0
  concentration that suppressed root growth: > 300 µM
[2]
  effect of the added compound on Trp-mediated root growth inhibition of dhs3: not recovered
  effect of the added compound on Tyr-mediated root growth inhibition of dhs1: not sufficient
AthDHS1
  effect on AthDHS1 activity (in words): did not significantly affect

## N[C@@H](CC(=O)O)C(=O)O [aspartate]
AthDHS1
  effect on AthDHS1 activity (in words): did not affect

## O=C(O)/C=C/c1ccccc1 [cinnamate]
AthDHS2
  effect on AthDHS2 activity (in words): no effects
AthDHS3; 1 mM effector
  effect on AthDHS3 activity (in words): no effects
AthDHS1
  effect on AthDHS1 activity (in words): no effects

## COc1cc(/C=C/C(=O)O)ccc1O [ferulate]
AthDHS2
  effect on AthDHS2 activity (in words): no effects
AthDHS3; 1 mM effector
  effect on AthDHS3 activity (in words): no effects
AthDHS1
  effect on AthDHS1 activity (in words): no effects

## O=C(O)CNCP(=O)(O)O [glyphosate]
[3]; dhs2
  increase of shikimate accumulation after treatment: five-fold
[3]; other genotypes
  increase of shikimate accumulation after treatment: two–three-fold
[3]; without Tyr, similar between genotypes
  effect on shikimate levels: increased shikimate levels

## O=C(O)/C=C/c1ccc(O)cc1 [p-coumarate]
AthDHS2
  effect on AthDHS2 activity (in words): no effects
AthDHS3; 1 mM effector
  effect on AthDHS3 activity (in words): no effects
AthDHS1
  effect on AthDHS1 activity (in words): no effects

## O=C(O)C(=O)CC1(C(=O)O)C=CC(O)C=C1 (stereo not shown) [prephenate]
AthDHS2
  inhibition of AthDHS2 activity: ~25%
AthDHS3; 1 mM effector
  effect on AthDHS3 activity (in words): did not significantly affect
AthDHS1
  effect on AthDHS1 activity (in words): did not significantly affect

## O=C(O)C1=C[C@@H](O)[C@@H](O)[C@H](O)C1 [shikimate]
AthDHS2
  inhibition of AthDHS2 activity: approximately 30%
AthDHS3; 1 mM effector
  effect on AthDHS3 activity (in words): did not significantly affect
[2]; dhs mutants, up to 1000 µM
  sensitivity of root growth: none of the dhs mutants showed sensitivity
[2]
  effect of the added compound on Trp-mediated root growth inhibition of dhs3: no effect
  effect of the added compound on Tyr-mediated root growth inhibition of dhs1: no effect
AthDHS1
  effect on AthDHS1 activity (in words): did not significantly affect

## COc1cc(/C=C/C(=O)O)cc(OC)c1O [sinapate]
AthDHS2
  effect on AthDHS2 activity (in words): no effects
AthDHS3; 1 mM effector
  effect on AthDHS3 activity (in words): no effects
AthDHS1
  effect on AthDHS1 activity (in words): no effects
